Source: paper PMC7200709, “The mechanism of loop C-neonicotinoid interactions at insect nicotinic acetylcholine receptor α1 subunit predicts resistance emergence in pests” (Scientific Reports, 2020)
Where two headings read alike, the source gives them in different places.

Columns and labels:
(Dα1)3(β2)2 nAChR = target: T1, (Dα1)3(β2)2 nAChR (Drosophila melanogaster, UniProt P09478+P09484); assay: two-electrode voltage clamp, Xenopus oocytes, agonist concentration-response; format: cell-based
T1 construct: gene nAChRalpha1; fruitfly Dα1 and chicken β2 cDNAs in pcDNA3.1(+), cRNA mixed 5:1 (Dα1:β2), Xenopus laevis oocytes; hybrid pentamer with Dα1/Dα1 and Dα1/β2 interfaces
T1 sequence (P09478 22-567): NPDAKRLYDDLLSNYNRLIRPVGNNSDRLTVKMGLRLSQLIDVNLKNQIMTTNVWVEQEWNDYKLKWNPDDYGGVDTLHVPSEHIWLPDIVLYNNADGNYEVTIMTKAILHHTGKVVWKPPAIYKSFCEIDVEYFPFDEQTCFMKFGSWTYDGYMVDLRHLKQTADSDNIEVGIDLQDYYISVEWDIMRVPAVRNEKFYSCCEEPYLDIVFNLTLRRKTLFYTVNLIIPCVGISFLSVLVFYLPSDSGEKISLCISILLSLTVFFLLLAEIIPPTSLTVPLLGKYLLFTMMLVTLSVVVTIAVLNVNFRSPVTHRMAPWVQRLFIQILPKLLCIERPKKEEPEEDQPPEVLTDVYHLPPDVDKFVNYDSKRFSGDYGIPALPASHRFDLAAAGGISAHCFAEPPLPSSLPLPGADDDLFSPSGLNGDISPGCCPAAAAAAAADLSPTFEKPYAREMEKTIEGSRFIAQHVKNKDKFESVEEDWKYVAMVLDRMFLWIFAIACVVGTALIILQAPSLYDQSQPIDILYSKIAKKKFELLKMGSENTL
T1 sequence (P09484 19-491): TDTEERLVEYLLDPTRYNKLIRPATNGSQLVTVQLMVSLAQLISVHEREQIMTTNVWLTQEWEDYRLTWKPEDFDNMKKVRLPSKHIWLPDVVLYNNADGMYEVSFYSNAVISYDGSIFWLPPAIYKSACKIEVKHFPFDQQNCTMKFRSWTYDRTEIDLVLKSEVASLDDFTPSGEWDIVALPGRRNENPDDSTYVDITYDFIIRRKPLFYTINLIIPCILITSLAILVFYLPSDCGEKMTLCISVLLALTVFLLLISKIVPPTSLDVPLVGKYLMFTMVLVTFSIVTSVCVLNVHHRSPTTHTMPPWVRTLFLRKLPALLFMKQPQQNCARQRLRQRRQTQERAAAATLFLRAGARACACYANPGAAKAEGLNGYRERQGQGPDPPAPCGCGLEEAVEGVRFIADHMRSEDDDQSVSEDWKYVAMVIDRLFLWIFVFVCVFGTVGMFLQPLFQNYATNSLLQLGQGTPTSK
From the text: two-electrode voltage clamp, Xenopus oocytes, agonist concentration-response on (Dα1)3(β2)2 nAChR

(Dα1)2(β2)3 nAChR = target: T2, (Dα1)2(β2)3 nAChR (Drosophila melanogaster, UniProt P09478+P09484); assay: as above; format: cell-based
T2 construct: gene nAChRalpha1; fruitfly Dα1 and chicken β2 cDNAs in pcDNA3.1(+), cRNA mixed 1:5 (Dα1:β2), Xenopus laevis oocytes; hybrid pentamer with Dα1/β2 interfaces
T2 sequence (P09478 22-567): as the sequence (P09478 22-567) above
T2 sequence (P09484 19-491): as the sequence (P09484 19-491) above
From the text: two-electrode voltage clamp, Xenopus oocytes, agonist concentration-response on (Dα1)2(β2)3 nAChR

## N#C/N=C1\SCCN1Cc1ccc(Cl)nc1 [thiacloprid]
(Dα1)3(β2)2 nAChR; read-out: Thiacloprid / (Dα1)3(β2)2 / pEC50 (converted)
  EC50: 45.7 nM
(Dα1)2(β2)3 nAChR; read-out: Thiacloprid / (Dα1)2(β2)3 / pEC50 (converted)
  EC50: 24.5 nM

## O=[N+]([O-])NC1=NCCN1Cc1ccc(Cl)nc1 [imidacloprid]
(Dα1)3(β2)2 nAChR; read-out: Imidacloprid / (Dα1)3(β2)2 / pEC50 (converted)
  EC50: 162 nM
(Dα1)2(β2)3 nAChR; read-out: Imidacloprid / (Dα1)2(β2)3 / pEC50 (converted)
  EC50: 112 nM

## CC(=O)OCC[N+](C)(C)C [ACh]
(Dα1)3(β2)2 nAChR; read-out: (Dα1)3(β2)2 / pEC50 (converted)
  EC50: 155 nM
(Dα1)2(β2)3 nAChR; read-out: (Dα1)2(β2)3 / pEC50 (converted)
  EC50: 162 nM
